Assays:
[1] = Aqueous solubility of HEP; format: physicochemical
[2] = Exposure after dosing crystalline HEP in animal species; format: in vivo; settings: crystalline form dosed in animal species

CCC(=O)c1csc(NC(=O)[C@H]([C@@H](C)c2ccccc2)N2C(=O)N[C@H](c3ccc(OCCO)cc3)C2=O)n1 [HEP, (2S,3S)-2-{(R)-4-[4-(2-hydroxy-ethoxy)-phenyl]-2,5-dioxo-imidazolidin-1-yl}-3-phenyl-N-(4-propionyl-thiazol-2-yl)-butyramide]
Aqueous solubility [1]: poor aqueous solubility | Exposure of crystalline form (even nanocrystalline) [2]: very low exposure

— patent US20120129898A1, “PHARMACEUTICAL COMPOSITIONS FOR POORLY SOLUBLE DRUGS” (priority 2007, published 2012)
